Experimental data reported in paper PMC5725665, “Discovery of a Highly Selective Cell‐Active Inhibitor of the Histone Lysine Demethylases KDM2/7” (Angewandte Chemie (International Ed. in English), 2017).

Tests used:
KDM2A = biological target: T1, KDM2A (Homo sapiens, UniProt Q9Y2K7); experiment: demethylase activity assay (RapidFire MS / AlphaScreen); format: biochemical; conditions: not competitive with 2-OG or peptide substrate
T1 construct: isolated enzyme
T1 sequence (Q9Y2K7 1-517 limits assumed): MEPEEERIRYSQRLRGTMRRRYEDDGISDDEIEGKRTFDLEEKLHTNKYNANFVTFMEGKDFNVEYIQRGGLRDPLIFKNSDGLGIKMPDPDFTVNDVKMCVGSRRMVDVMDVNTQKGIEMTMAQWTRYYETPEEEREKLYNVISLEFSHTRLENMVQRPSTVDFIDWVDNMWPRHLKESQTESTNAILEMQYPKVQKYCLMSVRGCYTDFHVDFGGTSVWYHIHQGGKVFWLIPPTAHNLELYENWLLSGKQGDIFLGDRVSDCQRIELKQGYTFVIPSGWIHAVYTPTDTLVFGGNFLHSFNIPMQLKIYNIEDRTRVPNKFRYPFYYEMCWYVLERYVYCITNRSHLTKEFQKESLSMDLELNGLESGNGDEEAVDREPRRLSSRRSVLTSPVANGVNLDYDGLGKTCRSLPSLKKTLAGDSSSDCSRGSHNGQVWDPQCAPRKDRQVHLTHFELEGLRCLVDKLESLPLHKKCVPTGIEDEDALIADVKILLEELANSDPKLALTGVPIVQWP

KDM7B PHD-finger domain = biological target: T2, KDM7B PHD-finger domain (Homo sapiens, UniProt Q9UPP1); experiment: biochemical; parameters: AlphaScreen peptide displacement assay, methyl-lysine reader domains; conditions: read-out: IC50 reader domains, AlphaScreen
T2 construct: gene PHF8; PHD-finger domain
T2 sequence (Q9UPP1 whole entry, the tested form may be a part): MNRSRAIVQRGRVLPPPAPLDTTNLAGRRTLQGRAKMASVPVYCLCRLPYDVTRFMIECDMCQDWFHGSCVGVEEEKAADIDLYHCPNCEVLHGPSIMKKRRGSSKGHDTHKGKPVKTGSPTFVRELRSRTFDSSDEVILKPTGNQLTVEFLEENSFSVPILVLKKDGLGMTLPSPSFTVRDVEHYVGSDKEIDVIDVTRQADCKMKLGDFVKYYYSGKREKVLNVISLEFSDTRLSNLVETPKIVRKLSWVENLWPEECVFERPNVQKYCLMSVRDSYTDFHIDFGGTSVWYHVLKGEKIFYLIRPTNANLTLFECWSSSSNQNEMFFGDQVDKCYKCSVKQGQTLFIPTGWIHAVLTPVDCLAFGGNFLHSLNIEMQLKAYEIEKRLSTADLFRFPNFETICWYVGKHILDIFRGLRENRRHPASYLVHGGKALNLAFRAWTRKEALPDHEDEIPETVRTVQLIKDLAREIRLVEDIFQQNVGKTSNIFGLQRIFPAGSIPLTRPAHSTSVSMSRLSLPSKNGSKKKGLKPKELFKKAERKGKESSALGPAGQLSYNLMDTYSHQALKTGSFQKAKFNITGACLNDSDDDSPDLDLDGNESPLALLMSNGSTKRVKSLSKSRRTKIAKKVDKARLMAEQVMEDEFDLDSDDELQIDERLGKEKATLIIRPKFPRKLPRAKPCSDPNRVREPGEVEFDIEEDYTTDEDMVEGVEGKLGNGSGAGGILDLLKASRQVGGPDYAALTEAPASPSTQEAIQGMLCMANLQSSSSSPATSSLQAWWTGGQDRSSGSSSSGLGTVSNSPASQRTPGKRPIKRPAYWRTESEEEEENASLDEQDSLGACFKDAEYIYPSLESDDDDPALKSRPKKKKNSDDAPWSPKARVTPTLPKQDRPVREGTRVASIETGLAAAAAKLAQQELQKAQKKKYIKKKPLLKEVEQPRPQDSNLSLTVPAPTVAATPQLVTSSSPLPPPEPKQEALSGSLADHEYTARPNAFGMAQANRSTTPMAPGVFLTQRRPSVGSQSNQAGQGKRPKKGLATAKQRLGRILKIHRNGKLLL
Experimental: (§1) S106 1.76 1.63 2.01 133 2.78 6.13 6.23 3.55 2.63 1.75 1.31 Table S-3: Summary of indoles tested. IC50 values correspond to KDM2A inhibition by AlphaScreen. 3.2 Selectivity-screening against other epigenetic writer and reader proteins Methyl-Lysine Reader domain assays. Fluorescence polarisation assays for methyl-lysine reader domains were carried out as described. AlphaScreen peptide displacement assays were performed according to manufacturer’s protocol (PerkinElmer, USA) with minor modifications. All reagents were diluted in 25 mM HEPES, 100 mM NaCl, 0.1 % BSA, pH 7.4 and 0.05 % CHAPS and allowed to equilibrate to room temperature prior to addition to plates. An 11-point 1:2.0

SGF29 = biological target: T3, SGF29 (Homo sapiens, UniProt Q96ES7); experiment: biochemical; parameters: AlphaScreen peptide displacement assay, methyl-lysine reader domains; conditions: read-out: IC50 reader domains, AlphaScreen
T3 sequence (Q96ES7 1-293): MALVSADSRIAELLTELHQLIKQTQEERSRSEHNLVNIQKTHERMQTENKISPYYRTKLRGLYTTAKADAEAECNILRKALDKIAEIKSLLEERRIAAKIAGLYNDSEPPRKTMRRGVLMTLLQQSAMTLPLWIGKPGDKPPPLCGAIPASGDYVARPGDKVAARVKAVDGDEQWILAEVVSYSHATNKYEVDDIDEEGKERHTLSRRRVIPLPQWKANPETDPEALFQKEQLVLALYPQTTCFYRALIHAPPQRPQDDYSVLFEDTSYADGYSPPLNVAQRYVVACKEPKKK
Experimental: as §1

CHD1 = CHD1 (Homo sapiens, UniProt O14646); experiment: biochemical; parameters: AlphaScreen peptide displacement assay, methyl-lysine reader domains; conditions: read-out: IC50 reader domains, AlphaScreen
Chain of CHD1 (O14646 whole entry, the tested form may be a part): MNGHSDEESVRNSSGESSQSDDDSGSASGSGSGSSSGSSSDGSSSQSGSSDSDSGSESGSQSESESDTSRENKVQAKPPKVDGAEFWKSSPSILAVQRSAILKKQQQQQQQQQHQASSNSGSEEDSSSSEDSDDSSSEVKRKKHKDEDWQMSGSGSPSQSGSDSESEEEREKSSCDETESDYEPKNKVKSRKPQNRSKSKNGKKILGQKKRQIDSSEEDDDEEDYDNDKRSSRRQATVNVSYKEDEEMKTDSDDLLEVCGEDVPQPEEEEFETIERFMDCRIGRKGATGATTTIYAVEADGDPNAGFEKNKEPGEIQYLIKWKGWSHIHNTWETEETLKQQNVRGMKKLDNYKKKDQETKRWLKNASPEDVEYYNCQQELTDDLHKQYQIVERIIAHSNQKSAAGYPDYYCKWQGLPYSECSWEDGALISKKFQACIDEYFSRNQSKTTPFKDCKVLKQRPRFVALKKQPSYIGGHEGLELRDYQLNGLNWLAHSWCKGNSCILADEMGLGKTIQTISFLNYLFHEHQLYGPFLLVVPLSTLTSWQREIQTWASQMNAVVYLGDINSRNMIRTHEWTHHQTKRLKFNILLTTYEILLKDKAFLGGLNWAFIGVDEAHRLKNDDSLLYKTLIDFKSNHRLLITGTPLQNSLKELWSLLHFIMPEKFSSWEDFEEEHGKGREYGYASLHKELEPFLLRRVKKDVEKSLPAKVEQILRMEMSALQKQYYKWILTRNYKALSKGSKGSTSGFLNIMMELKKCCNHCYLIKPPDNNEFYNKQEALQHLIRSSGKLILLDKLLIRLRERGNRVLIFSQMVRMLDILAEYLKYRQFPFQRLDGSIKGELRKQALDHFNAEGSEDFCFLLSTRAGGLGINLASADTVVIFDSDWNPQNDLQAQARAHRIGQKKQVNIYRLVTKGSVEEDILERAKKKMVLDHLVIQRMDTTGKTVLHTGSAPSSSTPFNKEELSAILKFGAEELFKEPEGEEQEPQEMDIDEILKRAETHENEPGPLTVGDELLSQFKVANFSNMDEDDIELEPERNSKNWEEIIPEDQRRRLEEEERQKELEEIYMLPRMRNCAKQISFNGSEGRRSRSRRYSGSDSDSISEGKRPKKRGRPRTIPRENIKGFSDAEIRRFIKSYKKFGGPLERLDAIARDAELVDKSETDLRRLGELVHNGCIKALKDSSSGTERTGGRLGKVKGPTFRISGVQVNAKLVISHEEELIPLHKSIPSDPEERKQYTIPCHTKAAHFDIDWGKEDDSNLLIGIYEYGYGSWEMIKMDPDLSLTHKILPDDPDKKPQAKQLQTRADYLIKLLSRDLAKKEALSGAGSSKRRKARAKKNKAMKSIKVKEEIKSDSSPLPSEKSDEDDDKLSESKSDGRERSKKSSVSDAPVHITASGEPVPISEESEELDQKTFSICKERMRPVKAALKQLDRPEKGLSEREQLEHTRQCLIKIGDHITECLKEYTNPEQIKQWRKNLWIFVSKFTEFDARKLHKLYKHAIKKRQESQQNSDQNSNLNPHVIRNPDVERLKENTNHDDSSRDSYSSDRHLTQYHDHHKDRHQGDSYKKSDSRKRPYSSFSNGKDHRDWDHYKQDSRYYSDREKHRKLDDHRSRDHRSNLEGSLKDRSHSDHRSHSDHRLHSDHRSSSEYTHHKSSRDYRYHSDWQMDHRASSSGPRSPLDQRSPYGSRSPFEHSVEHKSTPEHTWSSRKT
Experimental: as §1

KDM4A Tudor domain = biological target: T4, KDM4A Tudor domain (Homo sapiens, UniProt O75164); experiment: biochemical; parameters: AlphaScreen peptide displacement assay, methyl-lysine reader domains; conditions: read-out: IC50 reader domains, AlphaScreen
T4 construct: Tudor domain
T4 sequence (O75164 1-1064): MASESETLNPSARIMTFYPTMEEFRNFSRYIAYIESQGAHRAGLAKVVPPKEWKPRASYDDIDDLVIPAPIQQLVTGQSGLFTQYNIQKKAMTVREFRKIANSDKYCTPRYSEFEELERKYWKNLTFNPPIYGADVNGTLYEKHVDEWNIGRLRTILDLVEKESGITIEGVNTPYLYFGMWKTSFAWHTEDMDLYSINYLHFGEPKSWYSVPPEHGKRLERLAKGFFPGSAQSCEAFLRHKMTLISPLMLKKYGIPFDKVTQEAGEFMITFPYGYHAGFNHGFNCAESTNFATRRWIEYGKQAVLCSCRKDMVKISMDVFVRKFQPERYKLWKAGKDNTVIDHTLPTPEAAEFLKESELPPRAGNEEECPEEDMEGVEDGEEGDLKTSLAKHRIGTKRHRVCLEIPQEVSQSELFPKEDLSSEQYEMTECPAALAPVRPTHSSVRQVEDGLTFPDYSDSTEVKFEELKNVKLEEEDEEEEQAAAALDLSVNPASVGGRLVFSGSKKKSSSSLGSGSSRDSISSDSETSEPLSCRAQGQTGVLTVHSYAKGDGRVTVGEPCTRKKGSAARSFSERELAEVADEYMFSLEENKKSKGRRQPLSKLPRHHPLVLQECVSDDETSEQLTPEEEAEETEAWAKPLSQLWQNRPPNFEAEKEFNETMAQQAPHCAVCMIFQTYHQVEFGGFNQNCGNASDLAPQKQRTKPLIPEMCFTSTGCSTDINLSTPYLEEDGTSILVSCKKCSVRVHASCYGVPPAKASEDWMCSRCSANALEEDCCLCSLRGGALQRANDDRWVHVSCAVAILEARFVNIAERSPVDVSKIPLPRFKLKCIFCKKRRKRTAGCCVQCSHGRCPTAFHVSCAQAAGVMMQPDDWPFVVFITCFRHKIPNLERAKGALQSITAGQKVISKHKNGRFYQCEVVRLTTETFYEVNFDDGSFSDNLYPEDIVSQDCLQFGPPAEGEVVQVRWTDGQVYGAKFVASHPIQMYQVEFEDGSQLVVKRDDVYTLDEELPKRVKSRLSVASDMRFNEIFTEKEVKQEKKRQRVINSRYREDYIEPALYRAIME
Experimental: as §1

SPIN1 = SPIN1 (Homo sapiens, UniProt Q9Y657); experiment: biochemical; parameters: AlphaScreen peptide displacement assay, methyl-lysine reader domains; conditions: read-out: IC50 reader domains, AlphaScreen
Chain of SPIN1 (Q9Y657 whole entry, the tested form may be a part): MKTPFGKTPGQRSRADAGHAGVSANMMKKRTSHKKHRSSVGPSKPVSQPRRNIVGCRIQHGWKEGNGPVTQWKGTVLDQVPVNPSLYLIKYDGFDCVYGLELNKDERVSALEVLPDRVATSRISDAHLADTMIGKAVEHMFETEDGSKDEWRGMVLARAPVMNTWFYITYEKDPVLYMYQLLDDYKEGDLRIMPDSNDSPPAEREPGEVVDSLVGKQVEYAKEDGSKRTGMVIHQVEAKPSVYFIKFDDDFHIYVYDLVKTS
Experimental: as §1

For `CC(=O)N1c2ccccc2[C@@](C#N)(c2ccccc2)[C@@H]1c1cncc(CCCCCCCN2CCCC2)c1` [(S,S)-6], the IC50 (KDM2A) was 0.16 µM, the IC50 (KDM7B PHD-finger domain) was > 20 µM and the IC50 (SGF29) was > 20 µM. The IC50 (CHD1) was > 20 µM, the IC50 (KDM4A Tudor domain) was > 20 µM and the IC50 (SPIN1) was > 20 µM.
